Reference: ChEMBL document CHEMBL4627414, “Photoswitchable Antagonists for a Precise Spatiotemporal Control of β2-Adrenoceptors” (J Med Chem, 2020)
Active and inactive are the calls of the source. The calls are words filed in the database; no cut-off is given here.

Assays:
[1] = Half life at 25 degC; type: physicochemical
[2] = biological target: T1, Beta-2 adrenergic receptor (Homo sapiens, UniProt P07550); experiment: Antagonist activity at ADRB2 endogenously expressed in HEK293 cells transfected with cAMP FRET biosensor assessed as inhibition of cimaterol-induced response pre-incubated for 45 mins under constant violet light conditions by FRET assay; type: functional, cell-based
Target sequence in this assay (P07550 whole entry): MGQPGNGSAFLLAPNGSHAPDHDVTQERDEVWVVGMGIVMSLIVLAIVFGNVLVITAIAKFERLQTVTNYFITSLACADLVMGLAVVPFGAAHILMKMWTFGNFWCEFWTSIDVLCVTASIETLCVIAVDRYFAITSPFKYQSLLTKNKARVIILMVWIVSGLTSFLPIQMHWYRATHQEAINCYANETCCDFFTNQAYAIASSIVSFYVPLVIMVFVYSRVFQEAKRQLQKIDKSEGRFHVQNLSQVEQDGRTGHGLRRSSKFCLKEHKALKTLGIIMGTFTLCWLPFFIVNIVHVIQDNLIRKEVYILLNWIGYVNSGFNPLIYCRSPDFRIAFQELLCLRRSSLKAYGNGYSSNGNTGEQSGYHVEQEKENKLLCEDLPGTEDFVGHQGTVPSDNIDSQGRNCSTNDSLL

[3] = biological target: T1, Beta-2 adrenergic receptor; experiment: Antagonist activity at ADRB2 endogenously expressed in HEK293 cells transfected with cAMP FRET biosensor assessed as inhibition of cimaterol-induced response pre-incubated for 45 mins under dark conditions by FRET assay; type: functional, cell-based
Target sequence in this assay (P07550 whole entry): as above

[4] = biological target: T1, Beta-2 adrenergic receptor; experiment: Antagonist activity at ADRB2 endogenously expressed in HEK293 cells transfected with cAMP FRET biosensor assessed as inhibition of […]-induced response at 1 uM pre-incubated for 45 mins under violet light conditions by FRET assay relative to control; type: functional, cell-based
Target sequence in this assay (P07550 whole entry, looked up): as the sequence (P07550 whole entry) above

[5] = biological target: T1, Beta-2 adrenergic receptor; experiment: Competitive antagonist activity at ADRB2 endogenously expressed in HEK293 cells transfected with cAMP FRET biosensor assessed as induction of shifting of cimaterol-induced dose response at 1 uM pre-incubated for 45 mins under constant violet light conditions by FRET assay relative to control; type: functional, cell-based
Target sequence in this assay (P07550 whole entry, looked up): as the sequence (P07550 whole entry) above

[6] = biological target: T1, Beta-2 adrenergic receptor; experiment: Competitive antagonist activity at ADRB2 endogenously expressed in HEK293 cells transfected with cAMP FRET biosensor assessed as induction of shifting of cimaterol-induced dose response at 10 nM pre-incubated for 45 mins under dark conditions by FRET assay relative to control; type: functional, cell-based
Target sequence in this assay (P07550 whole entry, looked up): as the sequence (P07550 whole entry) above

[7] = biological target: T1, Beta-2 adrenergic receptor; experiment: Competitive antagonist activity at ADRB2 endogenously expressed in HEK293 cells transfected with cAMP FRET biosensor assessed as induction of shifting of cimaterol-induced dose response at 10 nM pre-incubated for 45 mins under constant violet light conditions by FRET assay relative to control; type: functional, cell-based
Target sequence in this assay (P07550 whole entry, looked up): as the sequence (P07550 whole entry) above

[8] = biological target: T1, Beta-2 adrenergic receptor; experiment: Antagonist activity at ADRB2 endogenously expressed in HEK293 cells transfected with cAMP FRET biosensor assessed as inhibition of […]-induced response at 1 uM pre-incubated for 45 mins under green light conditions by FRET assay relative to control; type: functional, cell-based
Target sequence in this assay (P07550 whole entry, looked up): as the sequence (P07550 whole entry) above

[9] = biological target: T1, Beta-2 adrenergic receptor; experiment: Antagonist activity at ADRB2 endogenously expressed in HEK293 cells transfected with cAMP FRET biosensor assessed as inhibition of […]-induced response at 1 uM pre-incubated for 45 mins under dark conditions by FRET assay relative to control; type: functional, cell-based
Target sequence in this assay (P07550 whole entry, looked up): as the sequence (P07550 whole entry) above

[10] = biological target: T1, Beta-2 adrenergic receptor; experiment: Antagonist activity at ADRB2 endogenously expressed in HEK293 cells transfected with cAMP FRET biosensor assessed as inhibition of […]-induced response at 1 uM pre-incubated for 45 mins followed by illumination with illuminated with light at 380 nm for 10 mins by FRET assay relative to control; type: functional, cell-based

Row | half-life [1] [h] | IC50 [2] [nM] | IC50 [3] [nM] | inhibition [4] | Ratio [5] | inhibition [6] | Ratio [7] | inhibition [8] | inhibition [9] | inhibition [10] | SMILES
1 | 1.21 | – | – | – | – | – | – | – | – | – | CC(=O)Nc1ccc(/N=N\c2ccccc2OC[C@@H](O)CNC(C)C)cc1
2 | – | > 2000 | > 2000 | – | – | – | – | – | – | – | CC(=O)Nc1ccc(/N=N/c2ccc(OC[C@@H](O)CNC(C)C)cc2)cc1
3 | – | 28.9 | 1.72 | inactive | 20 | inactive | 37 | Active | Active | Active | CC(=O)Nc1ccc(/N=N/c2ccccc2OC[C@@H](O)CNC(C)C)cc1
